The source of these data is paper PMC4620497 (Scientific Reports, 2015).

One may read the IC50 as the point on the concentration scale where inhibition reaches its midpoint. In general, Kd refers to the constant that tells how readily two partners part at equilibrium. Low values mean higher affinity, high ones lower affinity.

For one experiment, the target named is PAK1 (Homo sapiens, UniProt Q13153). Details: method as in earlier work. Particulars: Table S1; cited from earlier work.
The next experiment has as its target T1, PAK6 (Homo sapiens, UniProt Q9NQU5).
T1 construct: purchased DiscoveRx KINOMEscan (Ambit Biosciences)
The experiment can be described thus: KINOMEscan panel screen. Type of experiment: binding. The settings on record: read-out: Percent Control(%).

The next experiment deals with T2, PHKG1 (Homo sapiens, UniProt Q16816).
T2 construct: purchased DiscoveRx KINOMEscan (Ambit Biosciences)
The experiment can be described thus: KINOMEscan panel screen. Type of experiment: binding. The settings on record: read-out: Percent Control(%).

The target in a further experiment is T3, TIE2 (Homo sapiens, UniProt Q02763).
T3 construct: purchased DiscoveRx KINOMEscan (Ambit Biosciences)
The experiment can be described thus: KINOMEscan panel screen. It counts as binding. Particulars: read-out: Percent Control(%).

The target of a further experiment is T4, TAOK3 (Homo sapiens, UniProt Q9H2K8).
T4 construct: purchased DiscoveRx KINOMEscan (Ambit Biosciences)
T4 sequence (Q9H2K8 whole entry): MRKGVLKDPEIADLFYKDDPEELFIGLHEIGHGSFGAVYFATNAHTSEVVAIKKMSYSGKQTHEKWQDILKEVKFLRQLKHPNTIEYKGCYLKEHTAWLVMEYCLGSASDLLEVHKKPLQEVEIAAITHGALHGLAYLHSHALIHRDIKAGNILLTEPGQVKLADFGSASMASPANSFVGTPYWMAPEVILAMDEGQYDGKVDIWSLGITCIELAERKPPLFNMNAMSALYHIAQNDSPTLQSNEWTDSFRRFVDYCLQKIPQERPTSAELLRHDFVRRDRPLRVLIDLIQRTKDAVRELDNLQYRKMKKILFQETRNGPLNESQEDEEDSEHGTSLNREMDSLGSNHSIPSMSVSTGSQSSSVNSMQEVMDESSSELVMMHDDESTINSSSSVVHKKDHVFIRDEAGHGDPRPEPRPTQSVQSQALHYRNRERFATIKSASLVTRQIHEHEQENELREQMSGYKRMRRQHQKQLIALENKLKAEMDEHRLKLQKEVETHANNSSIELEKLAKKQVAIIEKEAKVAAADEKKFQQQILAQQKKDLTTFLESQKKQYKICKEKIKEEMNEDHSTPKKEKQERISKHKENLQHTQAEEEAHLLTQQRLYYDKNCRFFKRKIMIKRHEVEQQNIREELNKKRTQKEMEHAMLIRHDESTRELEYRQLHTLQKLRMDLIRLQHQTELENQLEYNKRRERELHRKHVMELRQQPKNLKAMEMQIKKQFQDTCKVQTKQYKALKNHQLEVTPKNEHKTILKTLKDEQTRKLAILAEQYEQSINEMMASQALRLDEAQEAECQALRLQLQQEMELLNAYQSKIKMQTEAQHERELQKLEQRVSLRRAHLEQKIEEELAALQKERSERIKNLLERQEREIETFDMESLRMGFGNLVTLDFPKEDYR
The experiment can be described thus: KINOMEscan panel screen. It counts as binding. Particulars: read-out: Percent Control(%).

For the next experiment, the system named is HepG2. The experiment can be described thus: MTT cell viability assay. The settings on record: Homo sapiens, HepG2, 72 h. Background: Tetrazolium dyes change colour on reduction, which living cells bring about.
The target of a further experiment is T5, MUSK (Homo sapiens, UniProt O15146).
T5 construct: purchased DiscoveRx KINOMEscan (Ambit Biosciences)
The experiment can be described thus: KINOMEscan panel screen. Type of experiment: binding. Particulars: read-out: Percent Control(%).

Another experiment deals with T6, CAMK2G (Homo sapiens, UniProt Q13555).
T6 construct: purchased DiscoveRx KINOMEscan (Ambit Biosciences)
The experiment can be described thus: KINOMEscan panel screen. Particulars: read-out: Percent Control(%). It counts as binding.

The target in another experiment is LOK (Homo sapiens, UniProt O94804). The experiment can be described thus: KINOMEscan kinase binding assay (Kd).
Experiment [1] concerns the target T7, RPS6KA5(Kin.Dom.1-N-terminal) (Homo sapiens, UniProt O75582).
T7 construct: RPS6KA5(Kin.Dom.1-N-terminal); purchased DiscoveRx KINOMEscan (Ambit Biosciences)
The experiment can be described thus: KINOMEscan panel screen. Type of experiment: binding. The settings on record: read-out: Percent Control(%).

For a further experiment, the target named is T8, MEK6 (Homo sapiens, UniProt P52564).
T8 construct: purchased DiscoveRx KINOMEscan (Ambit Biosciences)
T8 sequence (P52564 whole entry): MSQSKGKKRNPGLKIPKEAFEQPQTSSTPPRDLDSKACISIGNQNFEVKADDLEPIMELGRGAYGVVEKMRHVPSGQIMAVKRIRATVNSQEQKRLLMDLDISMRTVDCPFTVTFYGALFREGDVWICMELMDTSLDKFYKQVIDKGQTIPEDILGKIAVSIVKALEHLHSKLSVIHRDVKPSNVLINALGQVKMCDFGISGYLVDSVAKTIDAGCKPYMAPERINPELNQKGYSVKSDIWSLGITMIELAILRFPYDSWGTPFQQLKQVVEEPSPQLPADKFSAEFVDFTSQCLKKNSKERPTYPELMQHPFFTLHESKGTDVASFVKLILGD
The experiment can be described thus: KINOMEscan panel screen. Type of experiment: binding. The settings on record: read-out: Percent Control(%).

In experiment [2] the target is T9, JAK3(JH1domain-catalytic) (Homo sapiens, UniProt P52333).
T9 construct: JAK3(JH1domain-catalytic); purchased DiscoveRx KINOMEscan (Ambit Biosciences)
The experiment can be described thus: KINOMEscan panel screen. Type of experiment: binding. The settings on record: read-out: Percent Control(%).

A further experiment concerns the target T10, PIK3CA(E545K) (Homo sapiens, UniProt P42336, E545K).
T10 construct: purchased DiscoveRx KINOMEscan (Ambit Biosciences)
The experiment can be described thus: KINOMEscan panel screen. It counts as binding. The settings on record: read-out: Percent Control(%).

Another experiment addresses T11, PRKX (Homo sapiens, UniProt P51817).
T11 construct: purchased DiscoveRx KINOMEscan (Ambit Biosciences)
The experiment can be described thus: KINOMEscan panel screen. Particulars: read-out: Percent Control(%). Type of experiment: binding.

The target of the next experiment is FLT3-D835Y (Homo sapiens, UniProt P36888, D835Y). The experiment can be described thus: KINOMEscan kinase binding assay (Kd). More on the design: purchased Ambit Biosciences (KINOMEscan).
The test system of another experiment is MDA-MB-231. The experiment can be described thus: MTT cell viability assay. Particulars: Homo sapiens, MDA-MB-231, 72 h.
For another experiment, the target named is T12, PIK3CA(H1047L) (Homo sapiens, UniProt P42336, H1047L).
T12 construct: purchased DiscoveRx KINOMEscan (Ambit Biosciences)
The experiment can be described thus: KINOMEscan panel screen. Type of experiment: binding. The settings on record: read-out: Percent Control(%).

A further experiment addresses T13, MLK1 (Homo sapiens, UniProt P80192).
T13 construct: purchased DiscoveRx KINOMEscan (Ambit Biosciences)
The experiment can be described thus: KINOMEscan panel screen. Type of experiment: binding. Particulars: read-out: Percent Control(%).

The target of a further experiment is T14, YSK4 (Homo sapiens, UniProt Q56UN5).
T14 construct: purchased DiscoveRx KINOMEscan (Ambit Biosciences)
The experiment can be described thus: KINOMEscan panel screen. Particulars: read-out: Percent Control(%). Type of experiment: binding.

Another experiment has as its target T15, PIK3CA(H1047Y) (Homo sapiens, UniProt P42336, H1047Y).
T15 construct: purchased DiscoveRx KINOMEscan (Ambit Biosciences)
The experiment can be described thus: KINOMEscan panel screen. Type of experiment: binding. Particulars: read-out: Percent Control(%).

The next experiment has as its target T16, CLK1 (Homo sapiens, UniProt P49759).
T16 construct: purchased DiscoveRx KINOMEscan (Ambit Biosciences)
The experiment can be described thus: KINOMEscan panel screen. Type of experiment: binding. Particulars: read-out: Percent Control(%).

The target in the next experiment is T17, PKAC-beta (Homo sapiens, UniProt P22694).
T17 construct: purchased DiscoveRx KINOMEscan (Ambit Biosciences)
The experiment can be described thus: KINOMEscan panel screen. Type of experiment: binding. Particulars: read-out: Percent Control(%).

In a further experiment the target is T18, MEK4 (Homo sapiens, UniProt P45985).
T18 construct: purchased DiscoveRx KINOMEscan (Ambit Biosciences)
The experiment can be described thus: KINOMEscan panel screen. Type of experiment: binding. The settings on record: read-out: Percent Control(%).

The next experiment concerns the target T19, STK16 (Homo sapiens, UniProt O75716).
T19 construct: purchased DiscoveRx KINOMEscan (Ambit Biosciences)
The experiment can be described thus: KINOMEscan panel screen. It counts as binding. The settings on record: read-out: Percent Control(%).

In another experiment the target is T20, PIK4CB (Homo sapiens, UniProt Q9UBF8).
T20 construct: purchased DiscoveRx KINOMEscan (Ambit Biosciences)
The experiment can be described thus: KINOMEscan panel screen. It counts as binding. The settings on record: read-out: Percent Control(%).

A further experiment has as its target T21, BMPR2 (Homo sapiens, UniProt Q13873).
T21 construct: purchased DiscoveRx KINOMEscan (Ambit Biosciences)
The experiment can be described thus: KINOMEscan panel screen. Type of experiment: binding. Particulars: read-out: Percent Control(%).

Experiment [3] addresses T22, RSK3(Kin.Dom.1-N-terminal) (Homo sapiens, UniProt Q15349).
T22 construct: RSK3(Kin.Dom.1-N-terminal); purchased DiscoveRx KINOMEscan (Ambit Biosciences)
The experiment can be described thus: KINOMEscan panel screen. It counts as binding. The settings on record: read-out: Percent Control(%).

A further experiment addresses T23, KIT-autoinhibited (Homo sapiens, UniProt P10721).
T23 construct: purchased DiscoveRx KINOMEscan (Ambit Biosciences)
The experiment can be described thus: KINOMEscan panel screen. Particulars: read-out: Percent Control(%). It counts as binding.

The target in the next experiment is T24, PRKCD (Homo sapiens, UniProt Q05655).
T24 construct: purchased DiscoveRx KINOMEscan (Ambit Biosciences)
The experiment can be described thus: KINOMEscan panel screen. It counts as binding. The settings on record: read-out: Percent Control(%).

In a further experiment the target is T25, LIMK2 (Homo sapiens, UniProt P53671).
T25 construct: purchased DiscoveRx KINOMEscan (Ambit Biosciences)
The experiment can be described thus: KINOMEscan panel screen. It counts as binding. The settings on record: read-out: Percent Control(%).

A further experiment deals with T26, PKN2 (Homo sapiens, UniProt Q16513).
T26 construct: purchased DiscoveRx KINOMEscan (Ambit Biosciences)
T26 sequence (Q16513 whole entry): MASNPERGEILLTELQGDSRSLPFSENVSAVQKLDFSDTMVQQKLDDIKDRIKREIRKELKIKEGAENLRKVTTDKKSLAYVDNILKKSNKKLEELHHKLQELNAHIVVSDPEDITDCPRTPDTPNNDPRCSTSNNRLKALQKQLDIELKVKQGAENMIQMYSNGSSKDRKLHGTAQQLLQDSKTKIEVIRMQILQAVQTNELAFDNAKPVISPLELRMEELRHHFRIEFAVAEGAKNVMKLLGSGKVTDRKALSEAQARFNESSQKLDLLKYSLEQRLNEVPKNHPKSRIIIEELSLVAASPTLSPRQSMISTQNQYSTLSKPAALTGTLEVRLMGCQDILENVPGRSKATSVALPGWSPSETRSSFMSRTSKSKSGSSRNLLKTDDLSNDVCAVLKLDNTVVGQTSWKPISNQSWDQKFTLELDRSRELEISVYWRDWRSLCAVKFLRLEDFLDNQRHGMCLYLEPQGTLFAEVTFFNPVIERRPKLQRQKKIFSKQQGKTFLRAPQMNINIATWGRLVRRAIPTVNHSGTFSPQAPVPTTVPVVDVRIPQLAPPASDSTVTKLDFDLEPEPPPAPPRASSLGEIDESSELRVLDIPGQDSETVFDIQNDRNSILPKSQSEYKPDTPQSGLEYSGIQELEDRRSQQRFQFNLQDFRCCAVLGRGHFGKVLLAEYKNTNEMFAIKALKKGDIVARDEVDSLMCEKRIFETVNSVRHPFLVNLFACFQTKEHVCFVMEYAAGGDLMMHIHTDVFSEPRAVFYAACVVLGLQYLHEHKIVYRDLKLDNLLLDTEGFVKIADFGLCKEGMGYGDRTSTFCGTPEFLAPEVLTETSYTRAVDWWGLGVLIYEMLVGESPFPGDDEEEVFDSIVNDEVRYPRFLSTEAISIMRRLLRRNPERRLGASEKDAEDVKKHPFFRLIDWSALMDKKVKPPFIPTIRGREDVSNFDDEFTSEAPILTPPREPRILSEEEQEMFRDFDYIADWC
The experiment can be described thus: KINOMEscan panel screen. Type of experiment: binding. The settings on record: read-out: Percent Control(%).

The target in the next experiment is T27, HASPIN (Homo sapiens, UniProt Q8TF76).
T27 construct: purchased DiscoveRx KINOMEscan (Ambit Biosciences)
T27 sequence (Q8TF76 whole entry): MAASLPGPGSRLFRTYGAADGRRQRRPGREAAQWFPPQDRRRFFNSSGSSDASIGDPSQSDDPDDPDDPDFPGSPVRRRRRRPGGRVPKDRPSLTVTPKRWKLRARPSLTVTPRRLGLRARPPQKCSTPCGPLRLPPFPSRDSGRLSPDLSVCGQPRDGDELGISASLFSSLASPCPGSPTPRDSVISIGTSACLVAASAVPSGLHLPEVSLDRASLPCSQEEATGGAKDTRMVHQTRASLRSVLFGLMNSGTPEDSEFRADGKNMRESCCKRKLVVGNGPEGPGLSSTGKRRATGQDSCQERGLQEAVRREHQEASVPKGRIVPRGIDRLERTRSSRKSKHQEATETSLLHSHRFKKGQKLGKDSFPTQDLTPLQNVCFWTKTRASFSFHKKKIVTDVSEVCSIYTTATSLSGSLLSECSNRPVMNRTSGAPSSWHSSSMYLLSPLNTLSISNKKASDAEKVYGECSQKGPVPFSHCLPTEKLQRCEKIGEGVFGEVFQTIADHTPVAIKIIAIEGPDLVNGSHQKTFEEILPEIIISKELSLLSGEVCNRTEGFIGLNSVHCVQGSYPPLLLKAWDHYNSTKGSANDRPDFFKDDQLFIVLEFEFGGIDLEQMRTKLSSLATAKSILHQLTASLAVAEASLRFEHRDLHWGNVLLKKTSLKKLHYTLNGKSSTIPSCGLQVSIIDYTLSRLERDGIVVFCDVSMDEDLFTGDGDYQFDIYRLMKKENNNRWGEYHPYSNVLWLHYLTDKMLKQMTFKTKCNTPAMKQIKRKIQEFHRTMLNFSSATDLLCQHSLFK
The experiment can be described thus: KINOMEscan panel screen. Type of experiment: binding. The settings on record: read-out: Percent Control(%).

Another experiment concerns the target T28, NEK1 (Homo sapiens, UniProt Q96PY6).
T28 construct: purchased DiscoveRx KINOMEscan (Ambit Biosciences)
The experiment can be described thus: KINOMEscan panel screen. It counts as binding. The settings on record: read-out: Percent Control(%).

In another experiment the target is T29, CAMK1 (Homo sapiens, UniProt Q14012).
T29 construct: purchased DiscoveRx KINOMEscan (Ambit Biosciences)
The experiment can be described thus: KINOMEscan panel screen. Particulars: read-out: Percent Control(%). Type of experiment: binding.

The target of another experiment is T30, CSNK1G1 (Homo sapiens, UniProt Q9HCP0).
T30 construct: purchased DiscoveRx KINOMEscan (Ambit Biosciences)
T30 sequence (Q9HCP0 whole entry): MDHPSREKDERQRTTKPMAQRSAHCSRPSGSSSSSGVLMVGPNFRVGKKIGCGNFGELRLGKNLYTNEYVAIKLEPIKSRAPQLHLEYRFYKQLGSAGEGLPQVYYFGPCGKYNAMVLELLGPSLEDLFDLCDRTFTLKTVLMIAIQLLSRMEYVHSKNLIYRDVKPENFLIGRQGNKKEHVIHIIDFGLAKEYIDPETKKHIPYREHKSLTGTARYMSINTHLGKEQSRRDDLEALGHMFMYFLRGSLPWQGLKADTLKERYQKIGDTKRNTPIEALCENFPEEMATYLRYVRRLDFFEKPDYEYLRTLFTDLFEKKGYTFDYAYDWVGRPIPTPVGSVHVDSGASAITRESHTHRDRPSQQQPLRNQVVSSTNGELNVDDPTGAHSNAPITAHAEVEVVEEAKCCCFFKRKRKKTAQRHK
The experiment can be described thus: KINOMEscan panel screen. The settings on record: read-out: Percent Control(%). Type of experiment: binding.

In the next experiment the target is T31, PIK3CB (Homo sapiens, UniProt P42338).
T31 construct: purchased DiscoveRx KINOMEscan (Ambit Biosciences)
The experiment can be described thus: KINOMEscan panel screen. The settings on record: read-out: Percent Control(%). It counts as binding.

The target of another experiment is T32, CAMKK1 (Homo sapiens, UniProt Q8N5S9).
T32 construct: purchased DiscoveRx KINOMEscan (Ambit Biosciences)
The experiment can be described thus: KINOMEscan panel screen. It counts as binding. Particulars: read-out: Percent Control(%).

A further experiment concerns the target T33, ULK2 (Homo sapiens, UniProt Q8IYT8).
T33 construct: purchased DiscoveRx KINOMEscan (Ambit Biosciences)
The experiment can be described thus: KINOMEscan panel screen. Type of experiment: binding. The settings on record: read-out: Percent Control(%).

For the next experiment, the target named is T34, CLK3 (Homo sapiens, UniProt P49761).
T34 construct: purchased DiscoveRx KINOMEscan (Ambit Biosciences)
The experiment can be described thus: KINOMEscan panel screen. It counts as binding. The settings on record: read-out: Percent Control(%).

A further experiment addresses T35, ADCK4 (Homo sapiens, UniProt Q96D53).
T35 construct: purchased DiscoveRx KINOMEscan (Ambit Biosciences)
The experiment can be described thus: KINOMEscan panel screen. Type of experiment: binding. The settings on record: read-out: Percent Control(%).

T21 sequence (Q13873 27-1038): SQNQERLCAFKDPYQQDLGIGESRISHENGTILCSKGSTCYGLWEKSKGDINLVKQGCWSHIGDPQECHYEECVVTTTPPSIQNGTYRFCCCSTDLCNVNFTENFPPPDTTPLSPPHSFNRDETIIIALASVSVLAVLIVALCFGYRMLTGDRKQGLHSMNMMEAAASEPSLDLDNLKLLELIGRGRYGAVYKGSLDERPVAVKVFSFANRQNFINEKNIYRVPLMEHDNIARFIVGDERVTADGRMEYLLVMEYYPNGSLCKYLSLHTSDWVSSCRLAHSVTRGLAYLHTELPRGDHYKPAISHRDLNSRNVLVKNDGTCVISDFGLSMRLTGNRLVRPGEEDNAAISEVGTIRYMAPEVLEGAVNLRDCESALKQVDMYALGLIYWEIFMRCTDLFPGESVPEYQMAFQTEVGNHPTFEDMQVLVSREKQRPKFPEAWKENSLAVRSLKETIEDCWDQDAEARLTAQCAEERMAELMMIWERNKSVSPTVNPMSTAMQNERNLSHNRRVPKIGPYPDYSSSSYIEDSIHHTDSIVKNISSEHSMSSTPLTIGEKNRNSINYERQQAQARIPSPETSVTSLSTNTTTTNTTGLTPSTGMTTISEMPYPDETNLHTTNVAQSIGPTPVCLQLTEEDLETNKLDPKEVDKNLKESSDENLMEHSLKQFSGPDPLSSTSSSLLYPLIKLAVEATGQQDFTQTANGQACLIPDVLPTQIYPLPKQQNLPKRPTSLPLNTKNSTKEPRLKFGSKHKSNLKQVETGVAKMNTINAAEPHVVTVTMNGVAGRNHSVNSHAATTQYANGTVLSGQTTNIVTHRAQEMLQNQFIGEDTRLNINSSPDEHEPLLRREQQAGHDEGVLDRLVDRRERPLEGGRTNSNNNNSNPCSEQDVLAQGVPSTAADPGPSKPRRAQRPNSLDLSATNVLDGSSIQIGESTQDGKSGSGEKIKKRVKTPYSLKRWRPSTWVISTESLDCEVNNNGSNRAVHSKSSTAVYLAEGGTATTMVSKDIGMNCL
Chain of PAK1 (Q13153 whole entry): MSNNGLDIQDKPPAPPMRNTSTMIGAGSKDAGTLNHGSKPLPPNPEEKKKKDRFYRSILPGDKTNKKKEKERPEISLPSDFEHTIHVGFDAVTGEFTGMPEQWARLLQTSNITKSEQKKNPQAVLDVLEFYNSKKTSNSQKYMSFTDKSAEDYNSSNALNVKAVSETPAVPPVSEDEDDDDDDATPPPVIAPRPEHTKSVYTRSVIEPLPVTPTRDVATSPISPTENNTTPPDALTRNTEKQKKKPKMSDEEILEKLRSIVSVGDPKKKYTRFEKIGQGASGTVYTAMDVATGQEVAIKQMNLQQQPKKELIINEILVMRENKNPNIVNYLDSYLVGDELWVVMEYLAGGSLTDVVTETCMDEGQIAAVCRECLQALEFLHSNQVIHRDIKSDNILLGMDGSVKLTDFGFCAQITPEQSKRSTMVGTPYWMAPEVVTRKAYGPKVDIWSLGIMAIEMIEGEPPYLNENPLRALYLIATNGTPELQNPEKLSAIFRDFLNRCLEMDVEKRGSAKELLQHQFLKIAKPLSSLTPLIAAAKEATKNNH

Take `O=C(Nc1ccc(Oc2ncnc3[nH]ncc23)cc1)Nc1ccc(Cl)c(C(F)(F)F)c1` [Compound 1, 1-(4-(1H-pyrazolo[3,4-d]pyrimidin-4-yloxy)phenyl)-3-(4-chloro-3-(trifluoromethyl)phenyl)urea]: the IC50 on PAK1 is > 10 µM.
On to `CC(C)(C)c1cc(NC(=O)Nc2ccc(Oc3ncnc4[nH]ncc34)c(F)c2)no1` [SKLB-677, 1-(4-(1H-pyrazolo[3,4-d]pyrimidin-4-yloxy)-3-fluorophenyl)-3-(5-tert-butylisoxazol-3-yl)urea], for which the remaining binding at 10 µM at PAK6 was 90%; on PHKG1, 85%; at TIE2 it was 0.2%; on TAOK3, 0.55%; on MUSK it was 0%; at CAMK2G, 66%. For the same compound, the remaining binding at 10 µM came to 66% in experiment [1]; 62% at MEK6; 14% in experiment [2]; 100% at PIK3CA(E545K); 44% at PRKX; 84% at PIK3CA(H1047L). For the same compound, the remaining binding at 10 µM on MLK1 was found to be 42%; at YSK4, 0.15%; at PIK3CA(H1047Y), 100%; on CLK1 it was 5.8%; at PKAC-beta, 88%; on MEK4, 39%. In addition, the remaining binding at 10 µM at STK16 came to 36%; on PIK4CB it was 52%; on BMPR2 it was 14%; in experiment [3] it was 41%; on KIT-autoinhibited it was 1.1%; at PRKCD, 61%. The remaining binding at 10 µM at LIMK2 was 7%; at PKN2, 100%; at HASPIN it was 42%; on NEK1, 64%; at CAMK1 it was 21%; at CSNK1G1 it was 86%. The remaining binding at 10 µM on PIK3CB came to 100%; at CAMKK1 it was 4.4%; on ULK2, 97%; on CLK3, 52%; on ADCK4, 100%. For the same compound, the IC50 in the experiment with HepG2 is 6.7 µM; with MDA-MB-231 it was > 10 µM. In addition, the dissociation constant Kd on LOK is 5.1 nM; on FLT3-D835Y, 1.3 nM.
